Measured values published in ChEMBL document CHEMBL1201862, “PubChem BioAssay data set” (2004).
Each block holds one compound with its values, some of them ahead of it. Activity calls are given as the source filed them.

Tests used:
[1] = target: T1, Galanin receptor type 3 (Homo sapiens, UniProt O60755); assay: Fluorescence-based cell-based primary high throughput dose response assay to identify antagonists of the Galanin Receptor 3 (GalR3).; type: functional
T1 sequence (O60755 whole entry): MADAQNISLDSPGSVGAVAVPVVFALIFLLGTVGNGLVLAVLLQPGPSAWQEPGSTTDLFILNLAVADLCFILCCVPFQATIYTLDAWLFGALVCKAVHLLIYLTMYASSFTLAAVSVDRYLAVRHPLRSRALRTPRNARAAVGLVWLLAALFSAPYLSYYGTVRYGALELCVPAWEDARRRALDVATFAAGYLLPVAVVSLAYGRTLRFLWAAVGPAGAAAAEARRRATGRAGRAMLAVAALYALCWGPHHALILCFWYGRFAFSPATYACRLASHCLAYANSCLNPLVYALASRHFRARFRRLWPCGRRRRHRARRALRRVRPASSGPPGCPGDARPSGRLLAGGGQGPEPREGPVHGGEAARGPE

[2] = cells; type: functional, cell-based; settings: HEK-CNG
[3] = target: T2, Corticotropin-releasing factor receptor 2/Corticotropin-releasing factor-binding protein (Homo sapiens, UniProt P24387+Q13324); assay: activators of CRF receptor 2 with binding protein – uHTS hits, confirmation (AID 602473); type: functional; settings: read-out: EC50_Mean
T2 sequence (Q13324 whole entry): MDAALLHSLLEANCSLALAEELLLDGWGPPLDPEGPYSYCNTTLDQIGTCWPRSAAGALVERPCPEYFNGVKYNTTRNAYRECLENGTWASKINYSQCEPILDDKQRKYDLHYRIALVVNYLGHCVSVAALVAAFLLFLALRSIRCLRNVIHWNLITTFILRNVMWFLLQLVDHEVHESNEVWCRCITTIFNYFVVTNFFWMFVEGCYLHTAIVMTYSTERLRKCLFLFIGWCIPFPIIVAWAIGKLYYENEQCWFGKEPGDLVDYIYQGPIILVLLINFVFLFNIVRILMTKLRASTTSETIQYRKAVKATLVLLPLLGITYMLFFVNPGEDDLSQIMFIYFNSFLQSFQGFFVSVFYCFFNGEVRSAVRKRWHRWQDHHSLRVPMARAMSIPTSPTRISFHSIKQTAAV
T2 sequence (P24387 whole entry): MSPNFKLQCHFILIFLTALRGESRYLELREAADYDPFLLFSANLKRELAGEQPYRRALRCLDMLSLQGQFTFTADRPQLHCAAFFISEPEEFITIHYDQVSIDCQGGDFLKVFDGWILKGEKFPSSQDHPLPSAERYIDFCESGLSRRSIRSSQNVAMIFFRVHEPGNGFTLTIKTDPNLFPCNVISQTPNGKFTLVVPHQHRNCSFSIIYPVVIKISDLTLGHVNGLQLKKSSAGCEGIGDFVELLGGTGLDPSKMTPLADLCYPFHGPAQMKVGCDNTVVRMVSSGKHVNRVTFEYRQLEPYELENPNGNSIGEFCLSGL

[4] = blockers of CRF-binding protein–CRF-R2 complex – cell-based, uHTS hits, 384-well, dose response (AID 651639); type: functional, Homo sapiens; settings: read-out: IC50_Mean
[5] = target: T2, Corticotropin-releasing factor receptor 2/Corticotropin-releasing factor-binding protein; assay: Dose Response confirmation of uHTS hits for small molecule antagonists of the CRF-binding protein and CRF-R2 receptor complex.; type: functional; settings: read-out: IC50_Mean
[6] = viability loss in HeLa cells – cytotoxicity control for MgcRacGAP inhibitor project, dose response (AID 624300); type: functional
[7] = nonselective StAR promoter luciferase inhibitors – cell-based, luminescence, luciferase reporter, counter-screen for LRH-1 inverse agonist project, dose response (AID 651969); type: functional
[8] = target: Steroidogenic factor 1 (Homo sapiens, UniProt Q13285); assay: Counterscreen for inverse agonists of the liver receptor homolog-1 (LRH-1; NR5A2): Luminescence-based cell-based high throughput dose response assay to identify inverse agonists of the Steroidogenic Factor 1 Nuclear Receptor (SF1; NR5A1).; type: functional
Chain of Steroidogenic factor 1 (Q13285 whole entry): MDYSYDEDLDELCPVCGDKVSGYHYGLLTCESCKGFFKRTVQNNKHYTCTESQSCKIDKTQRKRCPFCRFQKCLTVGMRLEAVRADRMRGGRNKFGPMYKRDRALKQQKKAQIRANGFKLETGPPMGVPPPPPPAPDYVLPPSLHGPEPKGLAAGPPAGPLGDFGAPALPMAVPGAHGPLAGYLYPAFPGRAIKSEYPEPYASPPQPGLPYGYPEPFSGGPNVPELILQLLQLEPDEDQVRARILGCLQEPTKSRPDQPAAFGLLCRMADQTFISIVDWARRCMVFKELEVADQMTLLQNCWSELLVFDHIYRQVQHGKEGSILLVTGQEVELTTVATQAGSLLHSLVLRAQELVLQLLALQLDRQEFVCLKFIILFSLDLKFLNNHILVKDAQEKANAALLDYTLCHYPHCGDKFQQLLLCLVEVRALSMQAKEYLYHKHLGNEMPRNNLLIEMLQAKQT

[9] = target: Nuclear receptor subfamily 5 group A member 2 (Homo sapiens, UniProt O00482); type: functional, cell-based;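 further: HEK293T cells transfected with LRH-1 and a StAR promoter luciferase reporter; potency for inhibitors that lower LRH-1 driven reporter light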
Chain of Nuclear receptor subfamily 5 group A member 2 (O00482 whole entry, the tested form may be a part): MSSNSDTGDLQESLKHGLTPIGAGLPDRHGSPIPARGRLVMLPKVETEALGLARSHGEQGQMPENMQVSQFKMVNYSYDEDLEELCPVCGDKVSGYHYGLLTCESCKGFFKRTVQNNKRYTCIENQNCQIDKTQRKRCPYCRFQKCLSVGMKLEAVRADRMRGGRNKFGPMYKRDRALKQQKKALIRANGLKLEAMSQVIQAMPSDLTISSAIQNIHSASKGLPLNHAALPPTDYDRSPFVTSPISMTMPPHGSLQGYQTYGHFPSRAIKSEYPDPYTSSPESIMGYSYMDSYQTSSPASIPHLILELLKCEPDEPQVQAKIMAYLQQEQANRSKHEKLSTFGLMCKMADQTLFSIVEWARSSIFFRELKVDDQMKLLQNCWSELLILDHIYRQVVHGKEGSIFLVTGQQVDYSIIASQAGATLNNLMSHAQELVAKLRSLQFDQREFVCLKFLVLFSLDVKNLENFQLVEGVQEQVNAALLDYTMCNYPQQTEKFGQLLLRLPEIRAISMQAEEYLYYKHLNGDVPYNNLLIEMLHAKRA

[10] = HIV-1 AD8 envelope cell-cell fusion blockers – cherry-pick, dose response (AID 652062); type: functional, cell-based;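 further: luciferase signal from cell-cell fusion driven by HIV-1 clade B AD8 Env; potency is for inhibitors of fusion seen as a drop in luminescence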
[11] = blockers of HIV-1 envelope-mediated cell-cell fusion – cherry-pick, dose response (AID 652057); type: functional, cell-based
[12] = A549 cell cytotoxicity, dose response, cytotoxicity control, plate reader, cherry-pick, antagonist series (AID 743412); type: functional, cell-based
[13] = blockers of HIV-1 ZM109 envelope-driven cell-cell fusion – HeLa effector, CEM target cells, luciferase, cherry-pick, dose response (AID 652058); type: functional, cell-based;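 further: luciferase signal from HIV-1 Env mediated cell-cell fusion of effector and target cells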
[14] = blockers of bursicon-stimulated LGR2 cAMP reporter – cell-based, HEK293, CRE-luciferase reporter, cherry pick, set 2, dose response (AID 743343); type: functional;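 further: transfected cells were stimulated with diluted bursicon conditioned medium after compound addition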
[15] = viability loss in HEK293 cells – cell-based, plate reader, cherry-picked samples, cytotoxicity control, dose response (AID 743446); type: functional
[16] = viability loss in CEM21 cells – cell-based, CellTiter-Glo luminescence, cherry-picked, cytotoxicity control for viral fusion inhibitor project, dose response (AID 652042); type: functional;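 further: potency for signal decrease meaning cytotoxicity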
[17] = blockade of melanocortin 4 receptor signaling – cell-based, plate reader, cherry pick, counter-screen for LGR2 antagonist project, dose response (AID 743444); type: functional;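 further: transfected HEK 293 cells stimulated with alpha-MSH peptide; potency of inhibitors of the alpha-MSH evoked signal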
[18] = off-target signal loss in HeLa-CEM21 co-culture – HeLa F-luc CTL cells, cherry-picked, counter-screen for HIV-1 Env fusion inhibitor project, dose response (AID 652040); type: functional, cell-based;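 further: potency for signal decrease marking cytotoxic or nonspecific inhibition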
[19] = toxicity toward HepG2 liver cells – cell-based, plate reader, cherry-pick, antagonist series, cytotoxicity control, dose response (AID 743416); type: functional
[20] = target: T3, Leucine aminopeptidase (Plasmodium falciparum 3D7, UniProt Q8IL11); assay: P. falciparum M17LAP inhibitors, primary screen, biochemical, fluorogenic H-Leu-NHMec substrate, 1536-well (AID 1619); type: functional
T3 sequence (Q8IL11 whole entry): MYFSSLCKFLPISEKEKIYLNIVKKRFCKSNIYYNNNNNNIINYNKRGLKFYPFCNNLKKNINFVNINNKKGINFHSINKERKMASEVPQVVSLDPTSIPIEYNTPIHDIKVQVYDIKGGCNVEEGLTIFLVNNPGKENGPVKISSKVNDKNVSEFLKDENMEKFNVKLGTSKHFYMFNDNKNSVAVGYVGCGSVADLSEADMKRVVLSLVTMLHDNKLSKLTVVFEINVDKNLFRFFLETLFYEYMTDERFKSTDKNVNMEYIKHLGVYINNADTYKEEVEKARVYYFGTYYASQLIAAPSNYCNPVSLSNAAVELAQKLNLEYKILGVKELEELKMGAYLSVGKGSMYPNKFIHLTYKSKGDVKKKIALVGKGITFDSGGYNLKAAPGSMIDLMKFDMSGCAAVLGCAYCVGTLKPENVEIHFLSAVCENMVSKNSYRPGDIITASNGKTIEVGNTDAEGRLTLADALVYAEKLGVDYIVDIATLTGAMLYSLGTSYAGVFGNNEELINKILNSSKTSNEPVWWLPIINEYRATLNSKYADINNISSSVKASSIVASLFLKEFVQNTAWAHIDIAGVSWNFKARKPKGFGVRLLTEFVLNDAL

[21] = inhibition of ADAM10 peptide cleavage – biochemical, FRET peptide substrate, recombinant human ADAM10, selectivity assay for ADAM17 exosite inhibitor project, dose response (AID 743259);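 further: ADAM10 enzyme cleaving a FRET peptide substrate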
[22] = target: Disintegrin and metalloproteinase domain-containing protein 17 (Homo sapiens, UniProt P78536); assay: exosite inhibitors of ADAM17, dose response, biochemical (AID 743260)
Chain of Disintegrin and metalloproteinase domain-containing protein 17 (P78536 whole entry, the tested form may be a part): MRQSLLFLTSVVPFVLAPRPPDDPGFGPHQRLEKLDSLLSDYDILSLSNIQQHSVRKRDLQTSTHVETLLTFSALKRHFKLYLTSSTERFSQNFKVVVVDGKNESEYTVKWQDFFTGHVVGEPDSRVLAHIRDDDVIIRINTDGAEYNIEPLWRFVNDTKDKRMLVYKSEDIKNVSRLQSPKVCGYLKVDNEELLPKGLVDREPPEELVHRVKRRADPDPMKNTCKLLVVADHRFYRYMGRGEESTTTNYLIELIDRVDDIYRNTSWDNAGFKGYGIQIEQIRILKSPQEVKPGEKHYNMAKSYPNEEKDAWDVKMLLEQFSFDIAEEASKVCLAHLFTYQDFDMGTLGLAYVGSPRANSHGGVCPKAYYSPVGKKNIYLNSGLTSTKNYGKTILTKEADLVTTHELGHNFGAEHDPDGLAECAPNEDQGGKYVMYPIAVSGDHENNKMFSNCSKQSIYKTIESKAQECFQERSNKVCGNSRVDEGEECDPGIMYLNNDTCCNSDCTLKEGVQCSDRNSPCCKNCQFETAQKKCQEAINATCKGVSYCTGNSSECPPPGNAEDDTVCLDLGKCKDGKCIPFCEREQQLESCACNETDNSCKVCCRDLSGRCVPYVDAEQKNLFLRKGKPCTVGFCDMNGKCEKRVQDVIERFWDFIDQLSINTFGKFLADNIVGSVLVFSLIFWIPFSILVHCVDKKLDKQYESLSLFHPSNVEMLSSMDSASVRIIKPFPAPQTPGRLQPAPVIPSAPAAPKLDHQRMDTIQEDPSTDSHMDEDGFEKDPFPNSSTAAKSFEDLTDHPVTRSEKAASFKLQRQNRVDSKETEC

SMILES: CCOC(=O)c1[nH]c2ccc(OC)cc2c1NS(=O)(=O)c1ccc(Cl)s1
- IC50 [1]: 1.45 µM (active)
- EC50 [2]: > 29.9 µM (inactive)

- EC50 [3]: > 53 µM (inactive)
- IC50 [4]: > 20 µM (inactive)
- IC50 [5]: < 0.368 µM (active)
SMILES: COc1cccc(NC(=O)c2cc(S(=O)(=O)N3CCc4ccccc43)cn2C)c1

SMILES: N=C(NOC(=O)N1c2ccccc2Sc2ccccc21)c1ccc(Br)cc1
- CC50 [6]: 63.6 µM (active)

SMILES: CCc1cc(=O)oc2c(C)c(OCC(=O)NCCCN3CCCC3=O)ccc12
- IC50 [7]: 35.9 µM (inactive)
- IC50 [8]: 35.9 µM (inactive)
- IC50 [9]: 35.9 µM (inactive)

SMILES: O=C(NC1CCCCC1)c1[nH]nc2c1CCCCC2
- AC50 [10]: 7.38 µM (active)
- AC50 [11]: 6.09 µM (active)
- AC50 [12]: 37.1 µM (active)
- AC50 [13]: 16.3 µM (active)
- AC50 [14]: 3.2 µM (active)
- AC50 [15]: > 52 µM (inactive)
- AC50 [16]: 29.7 µM (active)
- AC50 [17]: 2.24 µM (active)
- AC50 [18]: 13.8 µM (active)
- AC50 [19]: > 52 µM (inactive)

- IC50 [20]: 10.2 µM (active)
- IC50 [8]: 0.599 µM (active)
- IC50 [9]: 1.54 µM (active)
SMILES: CCc1c(C)nc(SCC(=O)Nc2ccc3c(c2)OCCO3)[nH]c1=O

- IC50 [22]: 24.9 µM (inactive)
SMILES: O=C(O)CCC(=O)c1c[nH]c2ccccc12
- IC50 [21]: > 69.5 µM (inactive)

SMILES: Cn1c(C(=O)NN)cc2cc(Oc3ccccc3)ccc21
- IC50 [1]: 8.17 µM (active)
- EC50 [2]: > 29.9 µM (inactive)

SMILES: Cc1ccc(-c2nn3c(C)nnc3s2)cc1NC(=O)c1ccco1
- IC50 [7]: 35.9 µM (inactive)
- IC50 [8]: 8.56 µM (active)
- IC50 [9]: 18.3 µM (inactive)
